Literature values as cited in patent publication EP3811932A1, “DOSAGE FORM OF APALUTAMIDE” (Zentiva K.S., priority 2019, dated 2021).

Details: over a wide range of pH values

solubility in aqueous media: practically insoluble
SMILES: CNC(=O)c1ccc(N2C(=S)N(c3cnc(C#N)c(C(F)(F)F)c3)C(=O)C23CCC3)cc1F [Apalutamide, 4-[7-[6-cyano-5-(trifluoromethyl)pyridin-3-yl]-8-oxo-6-thioxo-5,7-diazaspiro[3.4]octan-5-yl]-2-fluoro-N-methylbenzamide]
